Here are results for 22 compounds from PubChem BioAssay (NCI).

Several values for one entry are separate records, joined by “and”; a condition that tells them apart may be missing. Equal values may be shown once.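 Exposure lasted 48 hours, with cells grown in 96-well plates and compounds tested at five concentrations. GI50 = concentration required for 50% inhibition of growth. The concentration for full growth arrest is given as TGI.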

Some test systems named below: SF-268 CNS; RXF 393 renal; NCI-H226 lung; EKVX NSCLC; IGROV1 ovarian; M14 melanoma; KM12 colon; NCI-H460 lung; LOX IMVI melanoma; MDA-N.
Holding throughout (test): inhibition of tumour cell growth, NCI panel, 48 h

Consider `COc1c(O)c(C=O)c2c(O)c(-c3c(C)cc4c(C(C)C)c(OC)c(O)c(C=O)c4c3O)c(C)cc2c1C(C)C`, for which the TGI was found to be 23.5 µM with SF-268 CNS; 5.75 µM in the experiment with RXF 393 renal; 9.69 µM in the experiment on NCI-H226 lung; 17.7 µM in the experiment with EKVX NSCLC; 18.5 µM with IGROV1 ovarian; 22.2 µM with M14 melanoma. Further, the TGI with KM12 colon was found to be 16 µM; with NCI-H460 lung, 16.1 µM.

As to `O=S(Nc1ccccc1)c1ccc(N2CCOCC2)cc1` (configuration not stated), the TGI in the experiment with LOX IMVI melanoma, in the experiment on SF-268 CNS, with NCI-H226 lung, in the experiment on EKVX NSCLC, with IGROV1 ovarian and in the experiment on M14 melanoma was greater than 100 µM each time. The TGI with KM12 colon and in the experiment on NCI-H460 lung was greater than 100 µM throughout.

Consider `COP(=O)(OC)C(Cc1cn(C(C)=O)c2ccccc12)C(=O)O` (configuration not stated), for which the TGI in the experiment with LOX IMVI melanoma, with MDA-N, with NCI-H226 lung, in the experiment with IGROV1 ovarian, in the experiment with M14 melanoma and in the experiment on NCI-H460 lung was greater than 100 µM in each case.

In the case of `C/C=C/c1cc(=O)c([C@@H]2OC(=O)c3cc(OC)cc(OC)c32)co1`, the TGI with SF-268 CNS, with RXF 393 renal, in the experiment on NCI-H226 lung, in the experiment with EKVX NSCLC, with IGROV1 ovarian and in the experiment on M14 melanoma was greater than 100 µM each time. Moreover, the TGI with KM12 colon and with NCI-H460 lung was greater than 100 µM throughout.

On to `COc1cc([C@@H]2c3cc4c(cc3[C@@H](c3c(O)cc(O)c5c3O[C@H](c3ccc(O)c(O)c3)[C@@H](O)C5)[C@H]3COC(=O)[C@H]23)OCO4)cc(OC)c1OC`, for which the TGI with LOX IMVI melanoma is greater than 100 µM; in the experiment on SF-268 CNS, greater than 100 µM; in the experiment on RXF 393 renal, 3.28 µM; with EKVX NSCLC, greater than 100 µM; in the experiment with IGROV1 ovarian, greater than 100 µM; with M14 melanoma, greater than 100 µM. For the same compound, the TGI with KM12 colon was 3.33 µM; in the experiment with NCI-H460 lung, 3.72 µM.

With `O=C1CCCCC/C1=C\c1ccc([N+](=O)[O-])cc1`, the TGI was 82 µM in the experiment on SF-268 CNS; greater than 100 µM with MDA-N; greater than 100 µM in the experiment with RXF 393 renal; greater than 100 µM in the experiment with EKVX NSCLC; 34.5 µM in the experiment with IGROV1 ovarian; greater than 100 µM in the experiment with M14 melanoma. The TGI with KM12 colon was 37.6 µM; in the experiment on NCI-H460 lung it was 39.4 µM.

For `Cc1cc(S(=O)(=O)N/C(=C(\C#N)C(=O)c2ccc(Cl)cc2)[n+]2ccc(N(C)C)cc2)c([S-])cc1Cl`, the TGI in the experiment on SF-268 CNS, with MDA-N, in the experiment on RXF 393 renal, in the experiment with NCI-H226 lung, in the experiment with IGROV1 ovarian and with M14 melanoma was greater than 100 µM in each case. Besides, the TGI in the experiment with KM12 colon and in the experiment with NCI-H460 lung was greater than 100 µM throughout.

Turning to `[Cl][Sn]([c]1ccccc1)([c]1ccccc1)[c]1ccccc1`, the GI50 was 0.161 µM and 0.0196 µM in the experiment with RXF 393 renal; 0.194 µM and 0.271 µM and 0.278 µM in the experiment with NCI-H226 lung; 0.316 µM and 0.0531 µM in the experiment with IGROV1 ovarian. The TGI is 0.324 µM and 0.0434 µM with RXF 393 renal; 0.423 µM and 0.484 µM and 0.433 µM with NCI-H226 lung; 0.985 µM and 0.239 µM and 0.119 µM in the experiment on EKVX NSCLC; 0.865 µM and 0.196 µM in the experiment on IGROV1 ovarian.

Consider `Cc1ccc(S(=O)(=O)n2c3ccc(Br)cc3c3nc4ccccc4nc32)cc1`, for which the TGI in the experiment with LOX IMVI melanoma is greater than 100 µM; in the experiment on SF-268 CNS it was greater than 100 µM; with MDA-N, greater than 100 µM; in the experiment with RXF 393 renal it was greater than 100 µM; in the experiment on NCI-H226 lung, 0.879 µM; with IGROV1 ovarian, 57.8 µM. The TGI with M14 melanoma, in the experiment on KM12 colon and in the experiment on NCI-H460 lung was greater than 100 µM each time.

Consider `COc1ccc(C2=Nc3cc(C)c(C)cc3NC(c3ccccc3)C2)cc1` (configuration not stated), for which the TGI with LOX IMVI melanoma, with SF-268 CNS, in the experiment with RXF 393 renal, in the experiment with NCI-H226 lung, in the experiment on EKVX NSCLC and in the experiment with IGROV1 ovarian was greater than 100 µM in each case. Besides, the TGI in the experiment on M14 melanoma, in the experiment with KM12 colon and in the experiment on NCI-H460 lung was greater than 100 µM each time.

For `CN(C)c1nc(N)nc(CS)n1`, the TGI with LOX IMVI melanoma, in the experiment on SF-268 CNS, in the experiment on RXF 393 renal, with NCI-H226 lung, in the experiment with EKVX NSCLC and in the experiment on IGROV1 ovarian was greater than 100 µM in each case. Further, the TGI in the experiment with M14 melanoma, in the experiment with KM12 colon and with NCI-H460 lung was greater than 100 µM in each case.

As to `Cc1ccc(OCC2OC(n3cnc4nc(N)nc(Cl)c43)CC2Oc2ccc(C)cc2)cc1` (configuration not stated), the TGI with LOX IMVI melanoma is greater than 100 µM; in the experiment on SF-268 CNS, 44.6 µM; with MDA-N it was 39.5 µM; with NCI-H226 lung it was 47.5 µM; with EKVX NSCLC, 69.4 µM; with IGROV1 ovarian, 44.8 µM. The TGI in the experiment with M14 melanoma was 41.2 µM; in the experiment with KM12 colon, 44 µM; in the experiment on NCI-H460 lung it was 97 µM.

Turning to `COc1cc2ccc(=O)oc2cc1O`, the TGI was greater than 625 µM in the experiment with LOX IMVI melanoma; greater than 585 µM in the experiment on SF-268 CNS; greater than 569 µM with RXF 393 renal; 283 µM with NCI-H226 lung; 226 µM with EKVX NSCLC; 423 µM with IGROV1 ovarian. In addition, the TGI is greater than 625 µM in the experiment with KM12 colon and 139 µM in the experiment with NCI-H460 lung.

For `NC(=O)c1cccc([N+](=O)[O-])c1`, the TGI in the experiment with LOX IMVI melanoma, with SF-268 CNS, in the experiment with NCI-H226 lung, in the experiment with EKVX NSCLC, in the experiment on IGROV1 ovarian and in the experiment on M14 melanoma was greater than 100 µM throughout. For the same compound, the TGI in the experiment with KM12 colon and in the experiment with NCI-H460 lung was greater than 100 µM each time.

As to `Cc1cccc(Nc2nn3c(=O)c4c5c(sc4nc3s2)CCCC5)c1`, the TGI is 23.1 µM in the experiment on LOX IMVI melanoma; greater than 100 µM with SF-268 CNS; greater than 100 µM with MDA-N; 62.8 µM in the experiment with RXF 393 renal; greater than 100 µM with NCI-H226 lung; greater than 100 µM with IGROV1 ovarian. For the same compound, the TGI with M14 melanoma, with KM12 colon and with NCI-H460 lung was greater than 100 µM each time.

On to `CC(=O)OCC1OC(SC2=N/C(=C\c3ccc(Br)s3)C(=O)N2CN2CCOCC2)C(OC(C)=O)C(OC(C)=O)C1OC(C)=O` (configuration not stated), for which the TGI came to 26.8 µM in the experiment on LOX IMVI melanoma; 81.9 µM in the experiment on SF-268 CNS; 47.7 µM in the experiment with MDA-N; 32.5 µM with NCI-H226 lung; 97.4 µM in the experiment on EKVX NSCLC; 46.9 µM in the experiment on IGROV1 ovarian. The figures for the TGI in the experiment with KM12 colon and in the experiment on NCI-H460 lung were 35.3 µM and 38.6 µM, respectively.

In the case of `CC(C)=NN/C(=N\S(=O)(=O)c1ccc(Oc2cccc(Cl)c2C#N)cc1)Nc1ccc(Cl)cc1`, the TGI with LOX IMVI melanoma, with SF-268 CNS, with MDA-N, with NCI-H226 lung, in the experiment on EKVX NSCLC and with IGROV1 ovarian was greater than 100 µM throughout. Also, the TGI with M14 melanoma, in the experiment with KM12 colon and with NCI-H460 lung was greater than 100 µM each time.

In the case of `Cc1cc(F)ccc1S(=O)(=O)Nc1cc(-c2c(O)ccc3ccccc23)c(O)c2ccccc12`, the GI50 in the experiment with LOX IMVI melanoma was 2.91 µM; with SF-268 CNS, 3.4 µM; with RXF 393 renal, 2.53 µM; in the experiment on NCI-H226 lung it was 2.85 µM; with EKVX NSCLC, 1.93 µM; in the experiment with IGROV1 ovarian, 2.89 µM. Further, the GI50 was 2.06 µM in the experiment with M14 melanoma, 1.93 µM with KM12 colon and 2.92 µM in the experiment with NCI-H460 lung. The TGI in the experiment on LOX IMVI melanoma came out at 10.8 µM; in the experiment with SF-268 CNS it was 14.3 µM; in the experiment on RXF 393 renal it was 9.11 µM; in the experiment with NCI-H226 lung it was 14.5 µM; in the experiment on EKVX NSCLC it was 7.45 µM; with IGROV1 ovarian, 8.68 µM. The TGI in the experiment with M14 melanoma is 5.4 µM; in the experiment on KM12 colon, 4.02 µM; in the experiment on NCI-H460 lung, 11.4 µM.

Take `N#CC1(C#N)NC(c2cccs2)C(C#N)(C#N)NC1c1cccs1` (configuration not stated): the TGI in the experiment with LOX IMVI melanoma was 37.3 µM; in the experiment with SF-268 CNS it was greater than 100 µM; in the experiment with RXF 393 renal it was greater than 100 µM; with NCI-H226 lung, greater than 100 µM; in the experiment with EKVX NSCLC, greater than 100 µM; with IGROV1 ovarian it was greater than 100 µM. Besides, the TGI with M14 melanoma, in the experiment on KM12 colon and in the experiment with NCI-H460 lung was greater than 100 µM throughout.

With `Cc1ccc2c(=O)cc(-c3ccc(Cl)s3)[nH]c2n1`, the TGI in the experiment with LOX IMVI melanoma was greater than 100 µM; in the experiment with SF-268 CNS, greater than 81.6 µM; in the experiment with RXF 393 renal it was greater than 25.7 µM; with NCI-H226 lung, 7.79 µM; with EKVX NSCLC it was greater than 100 µM; in the experiment on IGROV1 ovarian, greater than 100 µM. The TGI in the experiment on M14 melanoma, with KM12 colon and in the experiment on NCI-H460 lung was greater than 100 µM throughout.

On to `CCCCOC(=O)C(NC(C(=O)OCCCC)c1cc(C(C)(C)C)c(O)c(C(C)(C)C)c1)c1cc(C(C)(C)C)c(O)c(C(C)(C)C)c1` (configuration not stated), for which the TGI in the experiment on LOX IMVI melanoma, in the experiment on SF-268 CNS, in the experiment with MDA-N, in the experiment with NCI-H226 lung, in the experiment with EKVX NSCLC and in the experiment on IGROV1 ovarian was greater than 100 µM throughout. The TGI in the experiment on M14 melanoma and with KM12 colon was greater than 100 µM throughout.

Turning to `CCN(CC)N1C(=O)[N+](CC)(CC)N=C1[O-]`, the TGI with LOX IMVI melanoma, in the experiment on SF-268 CNS, in the experiment with MDA-N, in the experiment with NCI-H226 lung, in the experiment with EKVX NSCLC and in the experiment with IGROV1 ovarian was greater than 100 µM throughout. Moreover, the TGI with M14 melanoma, in the experiment on KM12 colon and in the experiment on NCI-H460 lung was greater than 100 µM throughout.
